Data as given in ChEMBL document CHEMBL6182863, “Discovery of novel rigid STING PROTAC degraders as potential therapeutics for acute kidney injury” (Eur J Med Chem, 2025).
Converted amounts (≈) assume the structure as drawn. The source made the active and inactive calls. The calls are words filed in the database; no cut-off is given here.

How the values were obtained:
[1] = system: HK-2; assay: Inhibition of STING downstream signal pathway in cisplatin stimulated human HK-2 cells assessed as reduction in STING protein level at 1.25 to 5 uM pretreated with cisplatin followed by compound addition by Western blotting analysis; type: cell-based; settings: dose 1.25-5 µM
[2] = system: THP-1; assay: PROTAC activity at CRBN/LKB1 in human THP-1 cells assessed as induction of LKB1 degradation at 1.25 to 20 uM by Western blotting analysis; type: cell-based; settings: dose 1.25-20 µM
[3] = system: BV-2; assay: Cytotoxicity against mouse BV-2 cells assessed as reduction in cell viability at > 60 uM incubated for 24 hrs by MTT assay; type: toxicity, cell-based; settings: bv-2, 24 h
[4] = Cytotoxicity against rat BRL-3A cells assessed as reduction in cell viability at 0.5 to 120 uM incubated for 24 hrs by MTT assay; type: toxicity, cell-based; settings: dose 0.5-120 µM
[5] = Acute toxicity in C57BL/6J mouse assessed as change in body weight at 61 mg/kg; type: organism-based; settings: in vivo
[6] = Acute toxicity in C57BL/6J mouse assessed as change in body weight at 125 mg/kg; type: organism-based; settings: in vivo
[7] = Acute toxicity in C57BL/6J mouse assessed as mortality at 30 to 179 mg/kg; type: organism-based; settings: in vivo, dose 30-179 mg/kg
[8] = Acute toxicity in C57BL/6J mouse; settings: in vivo, dose 30 mg/kg
[9] = system: HK-2; assay: Inhibition of ROS formation in human HK-2 cells measured after 24 hrs in presence of cisplatin by DAPI staining based fluorescence microscopic analysis; type: functional, cell-based; settings: dose 1.25-5 µM
[10] = Water solubility of the compound at 2 mg by HPLC analysis; type: physicochemical
[11] = Metabolic stability in human liver microsomes assessed as half life; type: ADME, Microsome
[12] = AUC (0 to infinity) in male Sprague-Dawley rat at 2 mg/kg, iv measured after 12 hrs by LC-MS/MS analysis; type: ADME, organism-based; settings: in vivo
[13] = MRT (0 to t) in male Sprague-Dawley rat at 2 mg/kg, iv measured after 12 hrs by LC-MS/MS analysis; type: ADME, organism-based; settings: in vivo
[14] = MRT (0 to infinity) in male Sprague-Dawley rat at 2 mg/kg, iv measured after 12 hrs by LC-MS/MS analysis; type: ADME, organism-based; settings: in vivo
[15] = system: Mus musculus; assay: Renoprotective activity against cisplatin-induced C57BL/6J mouse acute kidney injury model assessed as recovery of body weight administered intraperitoneally and measured after 72 hrs; type: functional, organism-based; settings: dose 25-50 mg/kg, route ip
[16] = system: Mus musculus; assay: Renoprotective activity against cisplatin-induced C57BL/6J mouse acute kidney injury model assessed as reduction in kidney weight at 25 to 50 mg/kg, ip measured after 72 hrs; type: functional, organism-based; settings: dose 25-50 mg/kg
[17] = system: Mus musculus; assay: Renoprotective activity against cisplatin-induced C57BL/6J mouse acute kidney injury model assessed as reduction in creatinine level at 25 to 50 mg/kg, ip measured after 72 hrs; type: functional, organism-based; settings: dose 25-50 mg/kg
[18] = system: Mus musculus; assay: Renoprotective activity against cisplatin-induced C57BL/6J mouse acute kidney injury model assessed as decrease in body weight at 25 to 50 mg/kg, ip measured after 72 hrs; type: functional, organism-based; settings: dose 25-50 mg/kg
[19] = system: Mus musculus; assay: Renoprotective activity against cisplatin-induced C57BL/6J mouse acute kidney injury model assessed as decrease in fecal viscosity at 25 to 50 mg/kg, ip measured after 72 hrs; type: functional, organism-based; settings: dose 25-50 mg/kg
[20] = system: Mus musculus; assay: Renoprotective activity against cisplatin-induced C57BL/6J mouse acute kidney injury model assessed as decrease in fecal occult blood at 25 to 50 mg/kg, ip measured after 72 hrs; type: functional, organism-based; settings: dose 25-50 mg/kg
[21] = biological target: T1, Protein cereblon/Stimulator of interferon genes protein (Mus musculus) (UniProt Q3TBT3+Q8C7D2); assay: In vivo inhibition of STING/TBK1/NF-kappaB signaling in C57BL/6J mouse assessed as decrease in P-TBK1 protein level in kidney at 25 to 50 mg/kg, ip measured after 72 hrs by Western blotting analysis; type: functional, organism-based; settings: dose 25-50 mg/kg
[22] = biological target: T1, Protein cereblon/Stimulator of interferon genes protein (Mus musculus); assay: In vivo inhibition of STING/TBK1/NF-kappaB signaling in C57BL/6J mouse assessed as decrease in serum IL-6 level at 25 to 50 mg/kg, ip measured after 72 hrs by ELISA; type: functional, organism-based; settings: dose 25-50 mg/kg
[23] = system: Mus musculus; assay: Renoprotective activity against cisplatin-induced C57BL/6J mouse model assessed as reduction in renal injury administered intraperitoneally by H and E staining based analysis; type: functional, organism-based; settings: dose 25-50 mg/kg, route ip
[24] = system: THP-1; assay: PROTAC activity at CRBN/AMPK in human THP-1 cells assessed as induction of AMPK degradation at 1.25 to 20 uM measured after 24 hrs by Western blotting analysis; type: cell-based; settings: dose 1.25-20 µM
[25] = system: THP-1; assay: PROTAC activity at CRBN/ERK in human THP-1 cells assessed as induction of ERK degradation at 1.25 to 20 uM measured after 24 hrs by Western blotting analysis; type: cell-based; settings: dose 1.25-20 µM

T1 sequence (Q3TBT3 whole entry, looked up): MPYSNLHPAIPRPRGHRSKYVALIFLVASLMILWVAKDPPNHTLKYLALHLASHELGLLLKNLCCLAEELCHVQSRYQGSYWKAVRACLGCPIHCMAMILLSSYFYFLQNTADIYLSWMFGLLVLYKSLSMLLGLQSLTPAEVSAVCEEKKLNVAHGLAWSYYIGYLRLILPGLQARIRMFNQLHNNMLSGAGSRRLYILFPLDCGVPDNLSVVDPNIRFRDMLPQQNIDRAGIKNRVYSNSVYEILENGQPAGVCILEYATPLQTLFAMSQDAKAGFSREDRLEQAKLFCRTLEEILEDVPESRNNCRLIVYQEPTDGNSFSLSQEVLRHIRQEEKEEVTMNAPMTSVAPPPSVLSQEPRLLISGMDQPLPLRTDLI
T1 sequence (Q8C7D2 whole entry, looked up): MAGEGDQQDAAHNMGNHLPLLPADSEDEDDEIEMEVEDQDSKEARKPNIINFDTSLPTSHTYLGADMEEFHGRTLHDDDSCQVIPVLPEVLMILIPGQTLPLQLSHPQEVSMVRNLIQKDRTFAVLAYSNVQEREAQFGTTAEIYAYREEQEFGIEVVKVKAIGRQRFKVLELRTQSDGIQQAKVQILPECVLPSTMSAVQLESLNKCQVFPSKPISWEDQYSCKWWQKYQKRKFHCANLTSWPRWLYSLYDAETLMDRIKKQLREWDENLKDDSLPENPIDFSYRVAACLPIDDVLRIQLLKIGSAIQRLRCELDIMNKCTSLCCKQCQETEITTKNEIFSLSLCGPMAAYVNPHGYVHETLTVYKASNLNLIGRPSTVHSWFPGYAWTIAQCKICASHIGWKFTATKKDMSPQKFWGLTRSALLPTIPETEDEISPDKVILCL

## O=C(/C=C/C(=O)N1CCN(CC2CCN(c3cccc4c3C(=O)N(C3CCC(=O)NC3=O)C4=O)C2)CC1)Nc1ccc(NC(=O)c2ccc([N+](=O)[O-])o2)cc1 (stereo not given)
[1]
  inhibition: Active
[2]
  Activity: inactive
[3]
  Activity: Non-toxic
[4]
  Activity: Non-toxic
[5]
  Activity: 25.3 g
[6]
  Activity: 23.4 g
[7]
  Activity: Non-toxic
[8]
  LD50: > 179 mg/kg
[9]
  inhibition: Dose-dependent-effect
[10]
  solubility: 3.317 µg/mL (≈ 4.41 µM)
[11]
  half-life: 20.1 min
[12]
  AUC: 0.73 µg/ml.hr
[13]
  MRT last at 12 h: 12 min
[14]
  MRT inf: 12.6 min
[15]
  Activity: Dose-dependent-effect
[16]
  Activity: Active
[17]
  Activity: Active
[18]
  Activity: Active
[19]
  Activity: Active
[20]
  Activity: Active
[21]
  inhibition: Active
[22]
  inhibition: Active
[23]
  Activity: Dose-dependent-effect
[24]
  Activity: inactive
[25]
  Activity: inactive
